Target: T1, Recombinant human BRD4 containing dual bromodomains (BRD4-BD12 (1-477)) (Homo sapiens, UniProt O60885)
T1 construct: Recombinant human BRD4 containing dual bromodomains (BRD4-BD12 (1-477)); made in house; host or cells: E. coli BL21-CodonPlus (DE3), modified pET vector
Assay: BRD4 Alphascreen binding assay
Summary of the method: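 AlphaScreen proximity between Ni-chelate-bound BRD4-BD12 (1-477) and streptavidin-captured H4 K5/K8/K12/K16-acetyl peptide measured after 1 h room-temperature compound incubation and 30 min with 7.5 μg/ml beads. Buffer: 50 mM HEPES pH 7.5, 50 mM NaCl, 0.01% BSA, 0.01% Triton X-100; data plate-normalized and four-parameter fit for IC50.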

Question: Which IC50 does the source give for `Cc1noc(C)c1-c1cnc2c(c1)c(C#CC(=O)O)cn2Cc1ccccc1` [P-0069, 3-(1-benzyl-5-(3,5-dimethylisoxazol-4-yl)-1H-pyrrolo[2,3-b]pyridin-3-yl)propiolic acid] here?
Answer: 8 to 1000 µM

Question: `Cc1noc(C)c1-c1cnc2c(c1)c(-c1cccc(C(=O)O)c1)cn2Cc1cccc(Cl)c1` [P-0061, 3-(1-(3-chlorobenzyl)-5-(3,5-dimethylisoxazol-4-yl)-1H-pyrrolo[2,3-b]pyridin-3-yl)benzoic acid] was tested. Which IC50 did it give?
Answer: 8 to 1000 µM

Question: Which IC50 does the source give for `Cc1noc(C)c1-c1cnc2c(c1)c(-c1ccc(C(=O)O)cc1OC(F)(F)F)cn2[C@@H](C)c1ccccn1` [P-0070, (S)-4-(5-(3,5-dimethylisoxazol-4-yl)-1-(1-(pyridin-2-yl)ethyl)-1H-pyrrolo[2,3-b]pyridin-3-yl)-3-(trifluoromethoxy)benzoic acid] here?
Answer: 8 to 1000 µM

Question: For `COC(=O)c1ccc(-c2cn(S(=O)(=O)c3ccc(C)cc3)c3ncc(-c4c(C)noc4C)cc23)cc1` [P-0005, methyl 4-(5-(3,5-dimethylisoxazol-4-yl)-1-tosyl-1H-pyrrolo[2,3-b]pyridin-3-yl)benzoate], which IC50 is on record?
Answer: 8 to 1000 µM

Question: For `Cc1noc(C)c1-c1cnc2c(c1)c(-c1ccc(C(=O)O)cc1)cn2C(C)c1ccccn1` (centres unmarked) [P-0080, 4-(5-(3,5-dimethylisoxazol-4-yl)-1-(1-(pyridin-2-yl)ethyl)-1H-pyrrolo[2,3-b]pyridin-3-yl)benzoic acid], which IC50 is on record?
Answer: 1 to 8 µM

Question: With `Cc1cccc(Cn2cc(-c3cccc(C(=O)O)c3)c3cc(-c4c(C)noc4C)cnc32)c1` [P-0062, 3-(5-(3,5-dimethylisoxazol-4-yl)-1-(3-methylbenzyl)-1H-pyrrolo[2,3-b]pyridin-3-yl)benzoic acid] as the compound, how does the IC50 read?
Answer: 8 to 1000 µM

Question: How did the IC50 turn out when `Cc1noc(C)c1-c1cnc2c(CC3CCC3)cn(-c3ccc(C(=O)O)cc3OC(F)(F)F)c2c1` [P-0066, 4-(3-(cyclobutylmethyl)-6-(3,5-dimethylisoxazol-4-yl)-1H-pyrrolo[3,2-b]pyridin-1-yl)-3-(trifluoromethoxy)benzoic acid] was run?
Answer: 8 to 1000 µM

Question: With `Cc1noc(C)c1-c1cnc2c(c1)c(-c1ccc(C(=O)O)cc1)cn2[C@@H](C)c1ccccn1` [P-0001, (S)-4-(5-(3,5-dimethylisoxazol-4-yl)-1-(1-(pyridin-2-yl)ethyl)-1H-pyrrolo[2,3-b]pyridin-3-yl)benzoic acid] as the compound, how does the IC50 read?
Answer: 8 to 1000 µM

Question: With `Cc1noc(C)c1-c1cnc2c(CC3CCC3)cn(-c3ccc(S(C)(=O)=O)c(F)c3)c2c1` [P-0068, 4-(3-(cyclobutylmethyl)-1-(3-fluoro-4-(methylsulfonyl)phenyl)-1H-pyrrolo[3,2-b]pyridin-6-yl)-3,5-dimethylisoxazole] as the compound, how does the IC50 read?
Answer: 8 to 1000 µM

Question: Which IC50 does the source give for `CNS(=O)(=O)c1cccc(-c2cn(Cc3ccccc3)c3ncc(-c4c(C)noc4C)cc23)c1` [P-0082, 3-(1-benzyl-5-(3,5-dimethylisoxazol-4-yl)-1H-pyrrolo[2,3-b]pyridin-3-yl)-N-methylbenzenesulfonamide] here?
Answer: 1 to 8 µM

Question: How did the IC50 turn out when `Cc1noc(C)c1-c1cnc2c(CC3CCC3)cn(-c3ccc(C(=O)O)cc3OC(F)F)c2c1` [P-0064, 4-(3-(cyclobutylmethyl)-6-(3,5-dimethylisoxazol-4-yl)-1H-pyrrolo[3,2-b]pyridin-1-yl)-3-(difluoromethoxy)benzoic acid] was run?
Answer: 1 to 8 µM

Question: For `Cc1noc(C)c1-c1cnc2c(C(=O)c3cccc(Cl)c3)cn(-c3ccnc(C(=O)O)c3)c2c1` [P-0088, 4-(3-(3-chlorobenzoyl)-6-(3,5-dimethylisoxazol-4-yl)-1H-pyrrolo[3,2-b]pyridin-1-yl)picolinic acid], which IC50 is on record?
Answer: 1 to 8 µM

Question: With `Cc1noc(C)c1-c1cnc2c(c1)c(-c1c(F)ccc(NS(C)(=O)=O)c1F)cn2C(C)c1ccccn1` (centres unmarked) [P-0096, N-(3-(5-(3,5-dimethylisoxazol-4-yl)-1-(1-(pyridin-2-yl)ethyl)-1H-pyrrolo[2,3-b]pyridin-3-yl)-2,4-difluorophenyl)methanesulfonamide] as the compound, how does the IC50 read?
Answer: 1 to 8 µM

Question: For `Cc1noc(C)c1-c1cnc2c(c1)c(-c1c(Cl)cc(C(=O)O)cc1Cl)cn2C(C)c1ccccn1` (centres unmarked) [P-0095, 3,5-dichloro-4-(5-(3,5-dimethylisoxazol-4-yl)-1-(1-(pyridin-2-yl)ethyl)-1H-pyrrolo[2,3-b]pyridin-3-yl)benzoic acid], which IC50 is on record?
Answer: 1 to 8 µM

Reference: patent publication US11446287B2, “Compounds and methods for EP300 or CBP modulation and indications therefor” (Opna Immuno-Oncology SA, priority 2019, dated 2022)
